Measurements: US4513001A, “β-Adrenergic 1-[1-benzimidazolyl]-N-[2-(4-hydroxy-3-methoxy-phenyl)-2-hydroxy-ethyl]- 3-amino butane and salts and hydrates thereof” (priority 1982, dated 1985)
Like-named read-outs stand apart in the source and are kept apart here.

Key:
[1] = Acute toxicity in the mouse, intravenous; conditions: in vivo
From the text: These two compounds were the subject of an acute toxicity study in the mouse.
The two compounds had similar toxicity and the pharmacological study was able, indifferently, to be carried out with one or the other, the results being, in the two cases, expressed by weight of base per kg of body weight for the in vivo tests and in molar concentration for the in vitro tests.

heart rate [2] = test: Heart rate of the un-anesthetised dog, oral; type: in vivo, Beagle dog
heart rate [3] = test: β-stimulant specificity: heart rate of the anesthetised dog, antagonism of compound A tachycardia by acebutolol; type: in vivo
From the text: The results below are the averages of the values obtained in 3 dogs.

[4] = T1 + 1 min after acebutolol 0.5 mg/kg i.v., following compound A perfusion
[5] = T1 + 5 min after acebutolol 0.5 mg/kg i.v.
[6] = T1 + 15 min after acebutolol 0.5 mg/kg i.v.
[7] = T1 + 30 min (printed T i) after acebutolol 0.5 mg/kg i.v.
[8] = T1 + 1 h after acebutolol 0.5 mg/kg i.v.
[9] = T1 + 4 h after acebutolol 0.5 mg/kg i.v.

**Q.** With COc1cc(C(O)CNC(C)CCn2cnc3ccccc32)ccc1O.Cl.Cl.O.O (centres unmarked) [Compound B, 1-[1-benzimidazolyl]-N-[2-(4-hydroxy-3-methoxy-phenyl)-2-hydroxy-ethyl]-3-amino-butane dihydrochloride, dihydrate] as the molecule, how does the LD50 ([1]; as base, confidence limits printed, read-out: LD50 expressed as base) read?
**A.** Its LD50 is 106 mg/kg.

**Q.** What about the LD50 ([1]; by weight of product, confidence limits p=0.05 printed, read-out: LD50) of the same molecule?
**A.** Its LD50 is 148 mg/kg.

**Q.** What about the “Heart rate, average” value (heart rate [2]; 22 μg base/kg, 15 min, time 0: 94, 12 dogs) of the same molecule?
**A.** Its value is 130.

**Q.** What about the “Heart rate, average” value (heart rate [2]; 22 μg base/kg, 30 min, time 0: 94) of the same molecule?
**A.** The value was 129.

**Q.** What about the “Heart rate, average” value (heart rate [2]; 22 μg base/kg, 1 h, time 0: 94) of the same molecule?
**A.** The value was 129.

**Q.** And the “Heart rate, average” value (heart rate [2]; 22 μg base/kg, 2 h, time 0: 94)?
**A.** The value was 119.

**Q.** And the “Heart rate, average” value (heart rate [2]; 22 μg base/kg, 3 h, time 0: 94)?
**A.** Its value is 109.

**Q.** What about the “Heart rate, average” value (heart rate [2]; 22 μg base/kg, 4 h, time 0: 94) of the same molecule?
**A.** The value was 104.

**Q.** What about the “Heart rate, average” value (heart rate [2]; 22 μg base/kg, 5 h, time 0: 94) of the same molecule?
**A.** The value was 102.

**Q.** And the “Heart rate, average” value (heart rate [2]; 72 μg base/kg, 15 min, time 0: 90, 12 dogs)?
**A.** The value was 147.

**Q.** What about the “Heart rate, average” value (heart rate [2]; 72 μg base/kg, 30 min, time 0: 90) of the same molecule?
**A.** Its value is 162.

**Q.** What about the “Heart rate, average” value (heart rate [2]; 72 μg base/kg, 1 h, time 0: 90) of the same molecule?
**A.** The value was 162.

**Q.** What about the “Heart rate, average” value (heart rate [2]; 72 μg base/kg, 2 h, time 0: 90) of the same molecule?
**A.** Its value is 160.

**Q.** What about the “Heart rate, average” value (heart rate [2]; 72 μg base/kg, 3 h, time 0: 90) of the same molecule?
**A.** The value was 146.

**Q.** What about the “Heart rate, average” value (heart rate [2]; 72 μg base/kg, 4 h, time 0: 90) of the same molecule?
**A.** Its value is 132.

**Q.** And the “Heart rate, average” value (heart rate [2]; 72 μg base/kg, 5 h, time 0: 90)?
**A.** The value was 125.

**Q.** What about the “Heart rate, average” value (heart rate [2]; 72 μg base/kg, 6 h, time 0: 90) of the same molecule?
**A.** Its value is 115.

**Q.** And the “Heart rate, average” value (heart rate [2]; 72 μg base/kg, 7 h, time 0: 90)?
**A.** Its value is 112.

**Q.** And the “Tachycardiac activity (comparison with Salbutamol)” value (heart rate [2]; un-anesthetised dog, in words)?
**A.** Its value is “distinctly less tachycardiac than Salbutamol”.

**Q.** Which Heart rate (heart rate [3]; [4]) does the source give for CCCC(=O)Nc1ccc(OCC(O)CNC(C)C)c(C(C)=O)c1 (centres unmarked) [Acebutolol, reference compound] here?
**A.** The Heart rate was 162 beats/min.

**Q.** What about the Heart rate variation (heart rate [3]; [4]) of the same molecule?
**A.** The Heart rate variation was “+5”.

**Q.** What about the Heart rate (heart rate [3]; [5]) of the same molecule?
**A.** Its Heart rate is 156 beats/min.

**Q.** What about the Heart rate variation (heart rate [3]; [5]) of the same molecule?
**A.** Its Heart rate variation is -1.

**Q.** And the Heart rate (heart rate [3]; [6])?
**A.** Its Heart rate is 149 beats/min.

**Q.** What about the Heart rate variation (heart rate [3]; [6]) of the same molecule?
**A.** Its Heart rate variation is -8.

**Q.** And the Heart rate (heart rate [3]; [7])?
**A.** Its Heart rate is 147 beats/min.

**Q.** And the Heart rate variation (heart rate [3]; [7])?
**A.** Its Heart rate variation is -10.

**Q.** And the Heart rate (heart rate [3]; [8])?
**A.** The Heart rate was 154 beats/min.

**Q.** What about the Heart rate variation (heart rate [3]; [8]) of the same molecule?
**A.** The Heart rate variation was -3.

**Q.** And the Heart rate (heart rate [3]; [9])?
**A.** Its Heart rate is 143 beats/min.

**Q.** And the Heart rate variation (heart rate [3]; [9])?
**A.** Its Heart rate variation is -14.

**Q.** What about the “Antagonism of the tachycardia caused by compound A” value (heart rate [3]; acebutolol 0.5 mg/kg i.v., compound A perfused 6 min at 4.2 μg/kg/min) of the same molecule?
**A.** Its value is “completely antagonises the tachycardia caused by compound A”.
